Where two headings read alike, the source gives them in different places. Square brackets hold non-standard residues; d marks the D form. Ends that are not written are not given here. Peptide text beside a SMILES is read from it. Cit = NC(=O)NCCC[C@H](N)C(=O)O
Tests used:
HLA-DRB1*01:01 = biological target: T1, HLA-DRB1*01:01 (Homo sapiens, UniProt P01903+P01911, A100R/D57E/F55L/F60I/F76Y/I96L/L162R/M171V/P40L/Q125E/R42F/V115G/Y59C); test: HLA class II peptide binding, inhibition of radiolabeled peptide binding to purified MHC
T1 construct: EBV transformed homozygous cell lines were used as sources of MHC molecules; endogenous in cells; host or cells: EBV transformed homozygous cell lines

HLA-DRB1*04:01 = biological target: T2, HLA-DRB1*04:01 (Homo sapiens, UniProt P01903+P01911, A100K/A169T/F76Y/I96L/K127E/L162R/M171V/N62H/P40V/Q125Y/R42H/S133A/S149N/S66Y/V115G/V209L/W38E); test: as above
T2 construct: EBV transformed homozygous cell lines were used as sources of MHC molecules; endogenous in cells; host or cells: EBV transformed homozygous cell lines

[1] = citrullinated 15-mer (X), purified MHC, inhibition of radiolabeled peptide binding, dash = IC50 >40,000 nM, read-out: DRB1*01:01 binding capacity, Cit peptide (IC50 nM)
[2] = citrullinated 15-mer (X), purified MHC, inhibition of radiolabeled peptide binding, dash = IC50 >40,000 nM, read-out: DRB1*04:01 binding capacity, Cit peptide (IC50 nM)
[3] = citrullinated 15-mer peptide (X = citrulline), purified HLA-DRB1*01:01, read-out: DRB1*01:01 binding capacity, Cit peptide (IC50 nM)
[4] = citrullinated 15-mer peptide (X = citrulline), purified HLA-DRB1*04:01, read-out: DRB1*04:01 binding capacity, Cit peptide (IC50 nM)
[5] = read-out: DRB1*01:01 binding capacity, WT peptide (IC50 nM)
[6] = read-out: DRB1*04:01 binding capacity, WT peptide (IC50 nM)
[7] = wild-type (unmodified Arg) 15-mer peptide, purified HLA-DRB1*01:01, read-out: DRB1*01:01 binding capacity, WT peptide (IC50 nM)
[8] = wild-type (unmodified Arg) 15-mer peptide, purified HLA-DRB1*04:01, read-out: DRB1*04:01 binding capacity, WT peptide (IC50 nM)

| IC50 (HLA-DRB1*01:01; [1]) [nM] | IC50 (HLA-DRB1*04:01; [2]) [nM] | IC50 (HLA-DRB1*01:01; [3]) [nM] | IC50 (HLA-DRB1*04:01; [4]) [nM] | Molecule | further results |
| --- | --- | --- | --- | --- | --- |
|  |  |  |  | CC(C)C[C@H](NC(=O)[C@H](C)NC(=O)[C@@H](NC(=O)[C@H](Cc1ccc(O)cc1)NC(=O)[C@@H](NC(=O)[C@H](Cc1ccccc1)NC(=O)[C@H](CCCNC(N)=O)NC(=O)[C@H](CO)NC(=O)[C@@H](N)CC(N)=O)[C@@H](C)O)[C@@H](C)O)C(=O)N[C@@H](CCCCN)C(=O)N[C@@H](CC(=O)O)C(=O)NCC(=O)N[C@@H](CS)C(=O)N[C@H](C(=O)N[C@@H](CCCCN)C(=O)O)[C@@H](C)O [NSXFTYTALKDGCTK] (H-NS[Cit]FTYTALKDGCTK-OH) | IC50 (HLA-DRB1*01:01; citrullinated peptide as listed (X at Cit position), read-out: DRB1*01:01 binding capacity Cit peptide (IC50 nM)): 44 nM; IC50 (HLA-DRB1*01:01; value of the wild-type (non-citrullinated) counterpart of the listed peptide, read-out: DRB1*01:01 binding capacity WT peptide (IC50 nM)): 15 nM; IC50 (HLA-DRB1*04:01; citrullinated peptide as listed (X at Cit position), read-out: DRB1*04:01 binding capacity Cit peptide (IC50 nM)): 12400 nM; IC50 (HLA-DRB1*04:01; value of the wild-type (non-citrullinated) counterpart of the listed peptide, read-out: DRB1*04:01 binding capacity WT peptide (IC50 nM)): 4170 nM |
| 533 | 9620 |  |  | CC(C)C[C@H](NC(=O)[C@H](CC(C)C)NC(=O)[C@H](CCCNC(=N)N)NC(=O)[C@@H](NC(=O)CNC(=O)[C@@H]1CCCN1C(=O)[C@@H](NC(=O)[C@H](CO)NC(=O)[C@H](CO)NC(=O)[C@@H](N)CCCNC(N)=O)C(C)C)C(C)C)C(=O)N[C@@H](CCC(N)=O)C(=O)N[C@@H](CC(=O)O)C(=O)N[C@@H](CO)C(=O)N[C@H](C(=O)N[C@@H](CC(=O)O)C(=O)O)C(C)C [XSSVPGVRLLQDSVD] (H-[Cit]SSVPGVRLLQDSVD-OH) |  |
|  |  | 565 | > 40000 | CC[C@H](C)[C@H](NC(=O)CN)C(=O)N[C@@H](C)C(=O)NCC(=O)N[C@@H](C)C(=O)N1CCC[C@H]1C(=O)NCC(=O)N[C@@H](Cc1ccccc1)C(=O)N1CCC[C@H]1C(=O)NCC(=O)N1CCC[C@H]1C(=O)N[C@@H](CCCNC(N)=O)C(=O)NCC(=O)N1CCC[C@H]1C(=O)N1CCC[C@H]1C(=O)O [GIAGAPGFPGPXGPP] (H-GIAGAPGFPGP[Cit]GPP-OH) |  |
|  |  |  |  | CC(C)C[C@H](NC(=O)[C@H](CCCNC(=N)N)NC(=O)[C@H](CO)NC(=O)[C@H](CCCCN)NC(=O)CNC(=O)[C@H](CCC(N)=O)NC(=O)CNC(=O)[C@H](CCCCN)NC(=O)[C@H](CC(C)C)NC(=O)[C@H](CCC(N)=O)NC(=O)[C@@H](N)CCC(=O)O)C(=O)NCC(=O)N[C@@H](CC(=O)O)C(=O)N[C@@H](CC(C)C)C(=O)N[C@@H](Cc1ccc(O)cc1)C(=O)O [Vimentin 136 WT] | IC50 (HLA-DRB1*01:01; [5]): 3720 nM; IC50 (HLA-DRB1*04:01; [6]): > 40000 nM |
| 7420 | > 40000 |  |  | CC(C)C[C@H](NC(=O)[C@H](CCC(N)=O)NC(=O)[C@H](CC(=O)O)NC(=O)[C@@H](N)C(C)C)C(=O)N[C@H](C(=O)N[C@@H](CC(N)=O)C(=O)N[C@@H](CC(=O)O)C(=O)N[C@@H](CCCCN)C(=O)N[C@@H](C)C(=O)N[C@@H](CCCNC(=N)N)C(=O)N[C@H](C(=O)N[C@@H](CCC(=O)O)C(=O)N[C@H](C(=O)N[C@@H](CCC(=O)O)C(=O)N[C@@H](CCCNC(N)=O)C(=O)O)C(C)C)C(C)C)[C@@H](C)O [VDQLTNDKARVEVEX] (H-VDQLTNDKARVEVE[Cit]-OH) |  |
| 1610 | > 40000 |  |  | CC[C@H](C)[C@H](NC(=O)[C@H](CC(=O)O)NC(=O)[C@H](CCC(=O)O)NC(=O)[C@H](C)NC(=O)[C@H](CC(C)C)NC(=O)[C@H](CC(N)=O)NC(=O)[C@@H](N)CC(=O)O)C(=O)N[C@@H](CCSC)C(=O)N[C@@H](CCCNC(=N)N)C(=O)N[C@@H](CC(C)C)C(=O)N[C@@H](CCCNC(N)=O)C(=O)N[C@@H](CCC(=O)O)C(=O)N[C@@H](CCCCN)C(=O)N[C@@H](CC(C)C)C(=O)N[C@@H](CCC(N)=O)C(=O)O [DNLAEDIMRLXEKLQ] (H-DNLAEDIMRL[Cit]EKLQ-OH) |  |
|  |  |  |  | AINTEFKNTRTNEKV [Vimentin 91 WT] | IC50 (HLA-DRB1*01:01; [5]): 1330 nM; IC50 (HLA-DRB1*04:01; [6]): 1340 nM |
|  |  |  |  | GDRGEAGAQGPMGPS [Collagen 1086 WT] | IC50 (HLA-DRB1*01:01; [7]): 9550 nM; IC50 (HLA-DRB1*04:01; [8]): > 40000 nM |
|  |  | 122 | 12900 | CC[C@H](C)[C@H](NC(=O)CNC(=O)[C@@H]1CCCN1)C(=O)N[C@@H](CC(=O)O)C(=O)N[C@@H](CCSC)C(=O)N[C@@H](CO)C(=O)N[C@@H](C)C(=O)N[C@@H](Cc1ccccc1)C(=O)N[C@@H](C)C(=O)NCC(=O)N[C@@H](CC(C)C)C(=O)NCC(=O)N1CCC[C@H]1C(=O)N[C@@H](CCCNC(N)=O)C(=O)N[C@@H](CCC(=O)O)C(=O)O [PGIDMSAFAGLGPXE] (H-PGIDMSAFAGLGP[Cit]E-OH) |  |
|  |  | 5190 | > 40000 | CSCC[C@H](NC(=O)[C@H](CCC(=O)O)NC(=O)[C@H](CCC(=O)O)NC(=O)[C@H](CCCCN)NC(=O)[C@H](CCSC)NC(=O)[C@@H](N)CC(N)=O)C(=O)N[C@@H](C)C(=O)N[C@@H](CCCNC(N)=O)C(=O)N[C@@H](Cc1c[nH]cn1)C(=O)N[C@@H](CC(C)C)C(=O)N[C@@H](CCCNC(=N)N)C(=O)N[C@@H](CCC(=O)O)C(=O)N[C@@H](Cc1ccc(O)cc1)C(=O)N[C@@H](CCC(N)=O)C(=O)N[C@@H](CC(=O)O)C(=O)O [NMKEEMAXHLREYQD] |  |
|  |  | > 40000 | > 40000 | C[C@H](NC(=O)CNC(=O)[C@H](CCCCN)NC(=O)[C@@H]1CCCN1C(=O)CNC(=O)[C@@H](N)CC(=O)O)C(=O)N[C@@H](CCCNC(=N)N)C(=O)NCC(=O)N[C@@H](CC(=O)O)C(=O)N[C@@H](CO)C(=O)NCC(=O)N1CCC[C@H]1C(=O)N1CCC[C@H]1C(=O)NCC(=O)N[C@@H](CCCNC(N)=O)C(=O)O [DGPKGARGDSGPPGX] (H-DGPKGARGDSGPPG[Cit]-OH; N-terminus and C-terminus assumed) | DRB1*04:01 binding capacity, WT/cit ratio (HLA-DRB1*04:01; ratio of WT IC50 to Cit IC50, >1 = citrullination increases binding): 0.548 |
|  |  |  |  | EEMLQREEAENTLQS [Vimentin 191 WT] | IC50 (HLA-DRB1*01:01; [5]): 704 nM; IC50 (HLA-DRB1*04:01; [6]): 11900 nM |
|  |  |  |  | GIVGLPGQRGERGFP [Collagen 981 WT] | IC50 (HLA-DRB1*01:01; [7]): 6.4 nM; IC50 (HLA-DRB1*04:01; [8]): 2450 nM |
|  |  |  |  | TAALRDVRQQYESVA [Vimentin 266 WT] | IC50 (HLA-DRB1*01:01; [5]): 771 nM; IC50 (HLA-DRB1*04:01; [6]): 6320 nM |
|  |  | 577 | 3130 | CSCC[C@H](N)C(=O)N[C@@H](C)C(=O)N[C@@H](CCCNC(=N)N)C(=O)N[C@@H](Cc1c[nH]cn1)C(=O)N[C@@H](CC(C)C)C(=O)N[C@@H](CCCNC(N)=O)C(=O)N[C@@H](CCC(=O)O)C(=O)N[C@@H](Cc1ccc(O)cc1)C(=O)N[C@@H](CCC(N)=O)C(=O)N[C@@H](CC(=O)O)C(=O)N[C@@H](CC(C)C)C(=O)N[C@@H](CC(C)C)C(=O)N[C@@H](CC(N)=O)C(=O)N[C@H](C(=O)N[C@@H](CCCCN)C(=O)O)C(C)C [MARHLXEYQDLLNVK] (H-MARHL[Cit]EYQDLLNVK-OH) |  |
| 5290 | 9150 |  |  | CC(C)C[C@H](NC(=O)[C@H](CCCNC(N)=O)NC(=O)[C@H](C)N)C(=O)N[C@@H](CC(=O)O)C(=O)N[C@@H](CC(C)C)C(=O)N[C@@H](CCC(=O)O)C(=O)N[C@@H](CCCNC(=N)N)C(=O)N[C@@H](CCCCN)C(=O)N[C@H](C(=O)N[C@@H](CCC(=O)O)C(=O)N[C@@H](CO)C(=O)N[C@@H](CC(C)C)C(=O)N[C@@H](CCC(N)=O)C(=O)N[C@@H](CCC(=O)O)C(=O)N[C@@H](CCC(=O)O)C(=O)O)C(C)C [AXLDLERKVESLQEE] (H-A[Cit]LDLERKVESLQEE-OH) |  |
|  |  | 5060 | > 40000 | CSCC[C@H](NC(=O)[C@H](CCC(=O)O)NC(=O)[C@H](CCC(=O)O)NC(=O)[C@H](CCCCN)NC(=O)[C@H](CCSC)NC(=O)[C@@H](N)CC(N)=O)C(=O)N[C@@H](C)C(=O)N[C@@H](CCCNC(=N)N)C(=O)N[C@@H](Cc1c[nH]cn1)C(=O)N[C@@H](CC(C)C)C(=O)N[C@@H](CCCNC(N)=O)C(=O)N[C@@H](CCC(=O)O)C(=O)N[C@@H](Cc1ccc(O)cc1)C(=O)N[C@@H](CCC(N)=O)C(=O)N[C@@H](CC(=O)O)C(=O)O [NMKEEMARHLXEYQD] |  |
| 6180 | 23300 |  |  | CC(C)C[C@H](NC(=O)[C@H](C)NC(=O)[C@H](CC(=O)O)NC(=O)[C@H](CC(N)=O)NC(=O)[C@H](CC(N)=O)NC(=O)[C@H](CCCNC(=N)N)NC(=O)[C@H](CC(N)=O)NC(=O)[C@H](C)NC(=O)[C@H](C)NC(=O)[C@H](CCC(=O)O)NC(=O)[C@H](CO)NC(=O)[C@H](CC(C)C)NC(=O)[C@H](CC(=O)O)NC(=O)[C@H](C)N)C(=O)N[C@@H](CCCNC(N)=O)C(=O)O [ADLSEAANRNNDALX] (H-ADLSEAANRNNDAL[Cit]-OH) |  |
| 6.6 | 329 |  |  | CC(C)C[C@H](NC(=O)[C@H](CCCNC(=N)N)NC(=O)[C@@H](NC(=O)[C@H](C)NC(=O)[C@H](CO)NC(=O)[C@H](CO)NC(=O)[C@H](CCCNC(N)=O)NC(=O)[C@@H](NC(=O)[C@H](C)NC(=O)[C@H](Cc1ccc(O)cc1)NC(=O)[C@@H](NC(=O)CNC(=O)CNC(=O)[C@@H]1CCCN1C(=O)[C@@H](N)CO)C(C)C)[C@@H](C)O)C(C)C)C(=O)O [SPGGVYATXSSAVRL] (H-SPGGVYAT[Cit]SSAVRL-OH) |  |
